Assay results taken from ChEMBL document CHEMBL5338803, “Novel Medicinal Chemistry Strategies Targeting CDK5 for Drug Discovery” (J Med Chem, 2023).
Values belong to the compound of their own block, whether it stands above or below them.

Experiments:
[1] = tested on: SH-SY5Y; assay: Neuroprotective activity against amyloid beta (25 to 35)-induced cell damage in human SH-SY5Y cells assessed as survival rate at 10 uM measured after 72 hrs by MTT assay; format: functional; details: read-out: Survival
[2] = molecular target: CDK2/Cyclin A1 (Homo sapiens, UniProt P24941); assay: Inhibition of CDK2/cyclin A (unknown origin); format: protein-complex assay
[3] = Selectivity ratio of IC50 for CDK5 (unknown origin) to IC50 for CDK2 (unknown origin)
[4] = molecular target: Cyclin-dependent kinase 5 (Homo sapiens) (UniProt Q00535); assay: Binding affinity to CDK5 (unknown origin) assessed as change in gibbs free energy
[5] = molecular target: Cyclin-dependent kinase 5/CDK5 activator 1 (Homo sapiens, UniProt Q00535); assay: Inhibition of CDK5/p25 (unknown origin); format: protein-complex assay
[6] = Selectivity index, ratio of IC50 for CDK2/cyclin A (unknown origin) to IC50 for CDK5/p25 (unknown origin)
[7] = molecular target: Dual specificity tyrosine-phosphorylation-regulated kinase 1A (Homo sapiens) (UniProt Q13627); assay: Inhibition of DYRK1A (unknown origin) at 10 uM relative to control
[8] = molecular target: Cyclin-dependent kinase 5 (Homo sapiens) (UniProt Q00535); assay: Inhibition of CDK5 (unknown origin) at 10 uM relative to control
[9] = molecular target: Glycogen synthase kinase-3 beta (Homo sapiens, UniProt P49841); assay: Inhibition of GSK3beta (unknown origin)
Chain of Glycogen synthase kinase-3 beta (P49841 whole entry): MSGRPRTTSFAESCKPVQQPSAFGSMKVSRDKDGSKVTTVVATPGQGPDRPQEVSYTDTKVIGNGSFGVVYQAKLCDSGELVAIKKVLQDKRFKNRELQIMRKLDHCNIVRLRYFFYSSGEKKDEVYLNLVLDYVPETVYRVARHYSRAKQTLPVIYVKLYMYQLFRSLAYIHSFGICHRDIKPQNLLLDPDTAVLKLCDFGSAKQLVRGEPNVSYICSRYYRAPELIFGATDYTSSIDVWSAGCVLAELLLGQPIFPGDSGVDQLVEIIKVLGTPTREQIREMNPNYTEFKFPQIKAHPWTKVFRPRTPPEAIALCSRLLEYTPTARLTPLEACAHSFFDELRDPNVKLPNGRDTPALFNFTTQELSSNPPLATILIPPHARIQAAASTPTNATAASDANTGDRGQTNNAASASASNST

Chain of Cyclin-dependent kinase 5/CDK5 activator 1 (Q00535 whole entry): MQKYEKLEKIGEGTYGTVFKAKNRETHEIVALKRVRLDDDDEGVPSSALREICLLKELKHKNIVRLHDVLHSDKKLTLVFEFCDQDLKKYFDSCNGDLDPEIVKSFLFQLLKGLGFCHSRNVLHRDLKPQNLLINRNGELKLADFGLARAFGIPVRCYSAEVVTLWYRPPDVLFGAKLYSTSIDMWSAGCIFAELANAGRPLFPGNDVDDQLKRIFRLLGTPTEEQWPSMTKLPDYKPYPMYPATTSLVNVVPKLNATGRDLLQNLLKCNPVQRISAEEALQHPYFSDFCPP
Chain of Cyclin-dependent kinase 5/CDK5 activator 1 (Q15078 whole entry, further chain): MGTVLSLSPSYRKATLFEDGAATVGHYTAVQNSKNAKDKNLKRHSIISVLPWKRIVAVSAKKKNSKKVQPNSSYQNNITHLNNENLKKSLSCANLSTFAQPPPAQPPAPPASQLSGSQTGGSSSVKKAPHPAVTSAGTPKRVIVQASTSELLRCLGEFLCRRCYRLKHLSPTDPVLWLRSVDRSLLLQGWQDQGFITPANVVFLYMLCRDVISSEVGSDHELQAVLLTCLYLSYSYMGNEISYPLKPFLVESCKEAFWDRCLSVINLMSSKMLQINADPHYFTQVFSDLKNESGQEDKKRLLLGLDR
Chain of Cyclin-dependent kinase 5 (Homo sapiens) (Q00535 whole entry, looked up): as the sequence (Q00535 whole entry) above

Compound: NC(=O)CN1C(=O)C(O)(CC(=O)c2ccc3ccccc3c2)c2ccccc21 (centres undefined)
viability at 10 µM [1]: 82.6%

IC50 [2]: > 100000 nM
Ratio IC50 [3]: 100
Compound: O=C(NOc1ccccc1)Nc1csc(Cc2c(Cl)cccc2Cl)n1

deltaG [4]: -23 kcal/mol
IC50 [5]: 9 nM
IC50 [2]: 63 nM
Compound: COc1ccc(CC(=O)Cc2ccn([C@H]3C[C@@H](C(N)=O)C3)c2)cc1

Compound: O=C(C1=C(O)C(=O)N(CCc2c[nH]c3ccccc23)C1c1cccnc1)c1ccc(Cl)cc1 (centres undefined)
viability at 10 µM [1]: 82.8%

Compound: C[C@]12CC[C@H]3[C@@H](CCC4=CC(=O)CC[C@@]43C)[C@@H]1CC[C@@H]2C(=O)COS(=O)(=O)c1ccc(Br)cc1
IC50 [5]: 6000 nM

Compound: C[C@@]12CCC[C@H]1[C@@H]1CC[C@H]3C[C@H](N)CC[C@]3(C)[C@H]1CC2
IC50 [5]: 6000 nM

Compound: CN1C(=O)COc2ccc(-c3nn(Cc4ccccc4)c(=O)c4ccccc34)cc21
viability at 10 µM [1]: 80.1%

Ratio IC50 [6]: 10
Compound: O=C(Nc1csc(Cc2c(Cl)cccc2Cl)n1)NN1CCOCC1

Compound: COc1ccc(OCC(=O)Nc2cccc(-c3nc4ccccc4c(=O)o3)c2)cc1
viability at 10 µM [1]: 82.9%

inhibition [7]: 95%
inhibition [8]: 98%
Compound: NS(=O)(=O)c1cccc(Nc2ncc3c(n2)CCCC3)c1

IC50 [9]: 22 nM
Compound: O=C(Nc1cc(Br)ccn1)Nc1cccc2c1C1CCCCN1C2=O (centres undefined)

Compound: O=c1oc2cc(O)cc(O)c2c2ccccc12
inhibition [7]: 92.2%
inhibition [8]: 62%

Compound: CN1CCC(N(CC(=O)O)c2ccc3cnc(Nc4ccc(-n5ccc(CO)n5)cc4F)cc3n2)CC1
IC50 [2]: 444 nM
Ratio IC50 [3]: 100
